Assay results from US5563130A, “Methods for inhibiting angiogenesis, proliferation of endothelial or tumor cells and tumor growth” (American Cyanamid Company, priority 1994, dated 1996).

Columns and labels:
Type in all cases: cell-based
[1] = test system: Adult Bovine Aortic Endothelial (ABAE) cell line; test: Antiproliferative activity in ABAE cells, PROTOCOL 2 (48 h, SRB, single well)
Method: (§1) PROTOCOL 1, 2, and 3 are described in greater detail hereinbelow. In general, according to PROTOCOLS 1 and 2, the target ABAE and/or Human Tumor cells are exposed to the compound of Formula I for 48 hours. PROTOCOL 3 exposes ABAE cell to the compound for 4 days. A detailed description of the protocol is as follows:
(§2) Antiproliferative Activity in Human Tumor and Adult Bovine Aortic Endothelial (ABAE) Cell Lines
(§3) The antiproliferative activity of the compounds of Formula I is evaluated in a panel comprised of human tumor cell lines and an adult bovine aortic endothelial cell line (ABAE) as listed in PROTOCOL 1. This assay is a modification of PROTOCOL 1. The modifications include:
(§4) 1) each concentration for each compound is tested in a single well;
(§5) 2) compounds are tested at 20, 4, 0.8, 0.16 microgram/ml and additionally in some experiments at 100 and 0.32 microgram/ml;
(§6) 3) samples are pipetted into a 96-well plate for each of the cell lines by a Beckman Biomek 1000 SL robot;
(§7) 4) after fixing with TCA each well is washed with 0.35 ml distilled water twice, not five times;
5) after staining with sulforhodamine B each well is washed 3 times, not five times;
6) the growth inhibition (I) as % of control, is calculated using the RS-1 data package (BBN Software), for every concentration of drug, as follows: [formula] wherein: T is optical density measurement for treated cells after 48 hours;
(§8) C is optical density measurement for untreated cells after 48 hours;
7) IC50 of growth inhibition is determined from graphically from dose response curves, as is known in the art.
Table 1 presents the results depicting the antiproliferative activity of the compounds of Formula I against an Adult Bovine Aortic Endothelial (ABAE) cell line, as evaluated by PROTOCOL 1 and PROTOCOL 2. The results are presented in terms of IC50 and are as follows.

[2] = test system: Adult Bovine Aortic Endothelial (ABAE) cell line; test: Antiproliferative activity in ABAE cells, PROTOCOL 3 (4 days, cell count); conditions: PROTOCOL 3, FIG. 1
Method: as §1
Antiproliferative Activity in Adult Bovine Aortic Endothelial (ABAE) Cell Line
ABAE cells are grown in DMEM media (Mediatech, Washington, D.C.) supplemented with 10% calf serum (Hyclone). ABAE cells are plated in 24-well dishes at 8,000 cells/well, followed by the addition of increasing concentrations of 7-[substituted amino]-9-[(substituted glycyl)amido]-6-demethyl-6-deoxytetracyclines. After four days, the cells are detached and counted. […] The growth inhibition (I) as % of control is calculated as follows: [formula] wherein: Nc is the number of cells in untreated wells;
Nt is the number of cells in treated wells;
No is the number of plated cells.
IC50 of growth inhibition is determined from the sets of I values plotted by Kaleidograph software (Abelbeck Software).
In addition FIG. 1, presents the dose response curve of the compound of Example 6 for the above ABAE cell line obtained by PROTOCOL 3.

[3] = test system: A2780S; test: Antiproliferative activity in human ovarian tumor cell line A2780S; conditions: PROTOCOL 1 and PROTOCOL 2
Method: as §1, §2
(§9) The antiproliferative activity of the compounds of Formula I of the present invention is evaluated in a panel comprised of human tumor cell lines and an adult bovine aortic endothelial cell line (ABAE). The human tumor cell lines are from:
(§10) All cell lines are maintained in log phase in RPMI 1640 media, supplemented with 5% fetal calf serum, penicillin/streptomycin and 2 mM L-glutamine. Cultures are renewed after 20 passages with cells from a fresh stock of batch-frozen early passage cells. Cell lines are routinely checked for mycoplasma contamination (Genprobe). In a laminar flow hood, cells (1-5×10^4) are plated into 96-well microtiter plates in a volume of 0.1 ml/well with a bulk microtiter dispenser (Denley). […] At this concentration, dimethylsulfoxide has no effect on cell growth. Compounds are added using a Tomtec dispenser which simultaneously dispenses from one 96-well plate, containing the drug dilutions, to the plates containing the cells. After two days of continuous drug exposure, 50% cold trichloroacetic acid (TCA) is added to 10% final concentration to fix the cells, and after 60 minutes at 4° C., the TCA is aspirated and the plates are washed 5 times with deionized water using a microtiter plate washer. The number of cells on the plate are quantitated using a protein dye-binding assay (Monks et al., 1991). A 0.4% solution of the dye, sulforhodamine B, in glacial acetic acid is added to the plates, and the plates are washed 5 times with 1% glacial acetic acid using the automatic plate washed. The bound stain is solubilized with 0.1 ml of 10 mM Tris base. The optical densities are read from an automatic spectrophotometric plate reader (Dynatech) directly to a main frame computer (VAX 8600).
(§11) Positive controls, that include standard chemotherapeutic drugs (i.e., adriamycin, cisplatin, etc.), are included in every experiment.
(§12) Background optical density measurements (complete media-cells, and complete media+drug-cells) are automatically subtracted from the appropriate control and test wells. Mean values and standard errors are determined from duplicate wells. A measure is also made of the optical density at time when the drugs are added. The number of cells after treatment (P), as % of control, is calculated for every concentration of drug, as follows: [formula] wherein: T is optical density measurement for treated cells after 48 hours;
as §8
(§13) Co is optical density measurement for cells at the time of drug addition.
(§14) IC50 of growth inhibition is calculated from the sets of P values using the RS-1 data package (BBN Software).
as §3, §4, §5, §6, §7
(§15) 5) after staining with sulforhodamine B each well is washed 3 times, not five times; […]

[4] = test system: A2780/DDP; test: Antiproliferative activity in human ovarian tumor cell line A2780/DDP; conditions: PROTOCOL 1 and PROTOCOL 2
Method: as §1, §2, §9, §10, §11, §12, §8, §13, §14, §3, §4, §5, §6, §7, §15

[5] = test system: MIP; test: Antiproliferative activity in human colon tumor cell line MIP; conditions: PROTOCOL 1 and PROTOCOL 2
Method: as §1, §2, §9
(§16) 2) Colon tumors: MIP, CaCo2, and SW620.
as §10, §11, §12, §8, §13, §14, §3, §4, §5, §6, §7, §15

[6] = test system: HTB 16; test: Antiproliferative activity in human tumor cell line HTB 16; conditions: ovarian tumor line; PROTOCOL 1 and PROTOCOL 2
Method: as §1, §2, §9, §10, §11, §12, §8, §13, §14, §3, §4, §5, §6, §7, §15

[7] = test system: SW620; test: Antiproliferative activity in human colon tumor cell line SW620; conditions: PROTOCOL 1 and PROTOCOL 2
Method: as §1, §2, §9, §16, §10, §11, §12, §8, §13, §14, §3, §4, §5, §6, §7, §15

[8] = test system: Human Tumor Cell lines; test: Antiproliferative activity in panel of human tumor cell lines; conditions: for AVERAGE IC50 FOR TUMOR CELL LINES: average over the tested human tumor cell lines
Method: as §1, §2, §9, §16, §10, §11, §12, §8, §13, §14, §3, §4, §5, §6, §7, §15

[9] = test system: CACO2; test: Antiproliferative activity in human colon tumor cell line CACO2; conditions: PROTOCOL 1 and PROTOCOL 2
Method: as §1, §2, §9, §16
All cell lines are maintained in log phase in RPMI 1640 media, supplemented with 5% fetal calf serum, penicillin/streptomycin and 2 mM L-glutamine. […] The number of cells on the plate are quantitated using a protein dye-binding assay (Monks et al., 1991). […] The optical densities are read from an automatic spectrophotometric plate reader (Dynatech) directly to a main frame computer (VAX 8600). […]
Background optical density measurements (complete media-cells, and complete media+drug-cells) are automatically subtracted from the appropriate control and test wells. Mean values and standard errors are determined from duplicate wells. […]

For `CCCCNCC(=O)Nc1ccc2c(c1O)C(=O)C1=C(O)[C@]3(O)C(=O)C(C(N)=O)=C(O)[C@@H](N(C)C)C3CC1C2.Cl` (stereo partly drawn) [Example 6, [4S-(4alpha,12aalpha)]-9-[[(Butylamino)acetyl]amino]-4-(dimethylamino)-1,4,4a,5,5a,6,11,12a-octahydro-3,10,12,12a-tetrahydroxy-1,11-dioxo-2-naphthacenecarboxamide monohydrochloride], the IC50 PROTOCOL 2 ([1]; ABAE cells, 48 h, PROTOCOL 2) was 4 µg/mL, the “activity in preventing proliferation of ABAE cells compared to Minocycline” value ([1]; Table 1) was “extraordinary activity in preventing the proliferation of ABAE cells as compared to the prior art compound, Minocycline” and the “inhibits 50% of cell growth” value [2] was “approximately 3 μg/ml”. The “A2780S IC50” value [3] was 3.4 µg/mL, the “A2780/DDP IC50” value [4] was 3.3 µg/mL and the “MIP IC50” value [5] was 3.4 µg/mL. The “HTB 16 IC50” value [6] was 2.9 µg/mL, the “SW620 IC50” value [7] was 3.2 µg/mL and the AVERAGE IC50 FOR TUMOR CELL LINES [8] was 3.2 µg/mL.
In the case of `C=CCN(CC=C)CC(=O)Nc1ccc2c(c1O)C(=O)C1=C(O)[C@]3(O)C(=O)C(C(N)=O)=C(O)[C@@H](N(C)C)C3CC1C2.Cl.Cl` (stereo partly drawn) [Example 2], the “A2780S IC50” value [3] was 1.5 µg/mL, the “A2780/DDP IC50” value [4] was 4.0 µg/mL and the “MIP IC50” value [5] was 4.0 µg/mL. The “CACO2 IC50” value [9] was 4.0 µg/mL, the “HTB 16 IC50” value [6] was 1.5 µg/mL and the “SW620 IC50” value [7] was 1.5 µg/mL. The “inhibition of cell growth at the highest concentrations” value ([8]; FIG. 2, 6 human tumor cell lines, highest concentrations) was under 100%, the AVERAGE IC50 FOR TUMOR CELL LINES [8] was 2.75 µg/mL and the Dead floating cells ([8]; even at the highest concentration) was “not observed”.
